Earlier results, collected in US11730740B2, “Laureth-4 containing topical formulations” (ARCUTIS BIOTHERAPEUTICS, INC., priority 2020, dated 2023).

How the values were obtained:
[1] = biological target: JAK 1 (Homo sapiens, UniProt P23458); details: statement in words
[2] = 10% adjuvant in propylene glycol; infinite dosing 278 μl/cm^2; PG alone control 1.6±0.4
[3] = 10% w/w surfactant in white petrolatum with 10% salicylic acid and 10% DMSO; 5.0 grams on 6.4×12.7 cm^2 skin; 8 hr

JAK 1, sequence (P23458 whole entry, species assumed): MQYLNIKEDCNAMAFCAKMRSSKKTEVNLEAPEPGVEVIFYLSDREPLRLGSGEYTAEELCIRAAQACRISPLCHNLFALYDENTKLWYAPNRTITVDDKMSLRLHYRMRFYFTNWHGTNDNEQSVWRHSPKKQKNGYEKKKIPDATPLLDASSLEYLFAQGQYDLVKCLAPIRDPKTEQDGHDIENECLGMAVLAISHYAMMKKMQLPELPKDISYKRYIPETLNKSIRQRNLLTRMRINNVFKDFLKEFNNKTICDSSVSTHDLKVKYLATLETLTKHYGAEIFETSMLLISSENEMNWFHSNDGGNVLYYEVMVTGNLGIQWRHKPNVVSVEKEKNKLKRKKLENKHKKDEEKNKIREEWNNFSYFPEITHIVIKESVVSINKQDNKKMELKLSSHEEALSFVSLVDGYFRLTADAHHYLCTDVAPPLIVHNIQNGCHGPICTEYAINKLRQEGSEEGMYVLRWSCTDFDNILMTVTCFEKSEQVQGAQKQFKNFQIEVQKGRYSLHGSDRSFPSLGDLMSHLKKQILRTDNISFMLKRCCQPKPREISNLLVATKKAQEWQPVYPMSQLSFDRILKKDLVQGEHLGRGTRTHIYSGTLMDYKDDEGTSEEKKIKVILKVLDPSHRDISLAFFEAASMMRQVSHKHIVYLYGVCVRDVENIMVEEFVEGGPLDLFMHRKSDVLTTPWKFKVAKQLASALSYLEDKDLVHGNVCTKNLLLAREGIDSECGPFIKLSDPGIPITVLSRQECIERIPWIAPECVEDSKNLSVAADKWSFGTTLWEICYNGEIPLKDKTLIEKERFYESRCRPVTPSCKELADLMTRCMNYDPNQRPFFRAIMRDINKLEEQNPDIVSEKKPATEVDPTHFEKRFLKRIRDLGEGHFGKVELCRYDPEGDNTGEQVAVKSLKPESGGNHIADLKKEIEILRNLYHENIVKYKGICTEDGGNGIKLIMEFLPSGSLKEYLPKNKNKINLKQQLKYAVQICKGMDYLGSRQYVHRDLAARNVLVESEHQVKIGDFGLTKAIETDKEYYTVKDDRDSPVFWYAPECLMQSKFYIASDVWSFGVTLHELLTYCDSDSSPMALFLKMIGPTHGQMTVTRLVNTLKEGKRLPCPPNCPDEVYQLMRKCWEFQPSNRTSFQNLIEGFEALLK

Compound | naloxone flux [2] | other results
CCC[C@@H]1C[C@@H](C(=O)N[C@@H]([C@H]2O[C@H](SC)[C@H](OP(=O)(O)O)[C@@H](O)[C@H]2O)[C@H](C)Cl)N(C)C1 [Clindamycin phosphate] | – | solubility in water (without the addition of laureth-4): readily soluble
COc1nsc(NC(=O)N2C[C@H]3C[C@H](N(C)c4ncnc5[nH]ccc45)C[C@H]3C2)n1 [SHR0302, (3 aR,5 S,6aS)—N-(3-methoxyl-1,2,4-thiadiazol-5-yl)-5-(methyl(7H-pyrrolo[2,3-d]pyrimidin-4-yl)amino)hexahydrocyclopenta[c]pyrrole-2(1H)-carboxamide] | – | inhibition of JAK 1 [1]: potent; selectivity for JAK1 over JAK2 [1]: high
CCCCCCCCCC(=O)O [capric acid] | 187.9±67.5 μg/cm^2-hr | –
CCCCCCCCCCCCOCCOCCOCCOCCO [laureth-4, tetraethylene glycol monododecyl ether] | 34.5±8.3 μg/cm^2-hr | percutaneous absorption of salicylic acid [3]: increased significantly
CCCCCCCCCCCC(=O)O [lauric acid] | 235.2 μg/cm^2-hr | –
CCCCCCCCCCCCO [lauryl alcohol] | 45.8 μg/cm^2-hr | –
CC/C=C\C/C=C\C/C=C\CCCCCCCC(=O)O [linolenic acid 18:2, linolenic acid] | 103.0 μg/cm^2-hr | –
CC/C=C\C/C=C\C/C=C\CCCCCCCCO [linolenyl alcohol] | 116.3 μg/cm^2-hr | –
CCCCCCCCC(=O)O [pelargonic acid] | 201.9±65.4 μg/cm^2-hr | –
CC1=C(/C=C/C(C)=C/C=C/C(C)=C/C(=O)O)C(C)(C)CCC1 [tretinoin] | – | solubility of tretinoin in VELTIN Gel (with laureth-4 (3%) and propylene glycol): 0.025%
polyoxyethylene 2 oleyl ether | – | percutaneous absorption of salicylic acid [3]: increased significantly
propylene glycol laurate | 43.8±5.5 μg/cm^2-hr | –
sorbitan monopalmitate | – | percutaneous absorption of salicylic acid [3]: increased significantly
sorbitan trioleate | – | percutaneous absorption of salicylic acid [3]: increased significantly
